Reference: patent US11345679B2, “Quaternary lactam compound and pharmaceutical use thereof” (SHANGHAI MEIYUE BIOTECH DEVELOPMENT CO., LTD., priority 2018, dated 2022)
Like-named read-outs stand apart in the source and are kept apart here.

Key:
[1] = biological target: human FXIa protein (hFXIa) (Homo sapiens (Human), UniProt P03951); assay: Enzyme activity assay in vitro (FXIa, S-2366 substrate); type: biochemical; conditions: absorbance at OD405nm
Protocol: II. Enzyme Activity Assay In Vitro
Method: the test compound was dissolved in 10 mM mother liquor with DMSO, and stored at −80° C. until use.

[2] = test system: human plasma; assay: Determination of activated partial thromboplastin time (APTT); type: biochemical
Protocol: 1. Determination of Activated Partial Thromboplastin Time (APTT)
1. Preparation of human plasma: human venous whole blood was collected and placed in 3.2% sodium citrate anticoagulation tube (human blood: sodium citrate=9:1 (V/V)). The tube was centrifuged at ˜1560 g for 8 min, to obtain human plasma.
2. Preparation of the test sample: the test compound was dissolved in DMSO, and diluted in gradient to obtain 3000, 600, 120, 24, 4.8 μM stock solutions; each stock solution was mixed with the human plasma as prepared under item 1 at a ratio of 1:49 (V/V).
3. Negative control: DMSO solvent without the test compound was diluted in gradient to obtain 3000, 600, 120, 24, 4.8 μM stock solutions; each stock solution was mixed with the human plasma as prepared under item 1 at a ratio of 1:49 (V/V).
4. Test: After mixing the test solution of the above test sample and that of the negative control separately for 3 to 5 minutes, 30 μL of the test solution was added to the machine (MC-2000 coagulometer), and pre-warmed at 37° C. for 2 min; 30 μL of APTT reagent (MDC Hemostasis, Cat: 300025) was added and incubated at 37° C. for 5 min; and then 30 μL CaCl2 was added to initiate the APTT measurement.
According to the measured APTT result, APTT ratio was calculated according to the following formula. APTT ratio=(APTTtest compound/APTTnegative control).
Exponential equation was used to fit the Lg (concentration) to APTT ratio (Origin Pro 8.5.1 SR2), the drug working concentrations at 1.5 times APTT ratio and 2 times APTT ratio were calculated, namely EC150 and EC200.

[3] = drug working concentration at 1.5 times APTT ratio, read-out: EC150
[4] = drug working concentration at 2 times APTT ratio, read-out: EC200

human FXIa protein (hFXIa), sequence (P03951 388-625): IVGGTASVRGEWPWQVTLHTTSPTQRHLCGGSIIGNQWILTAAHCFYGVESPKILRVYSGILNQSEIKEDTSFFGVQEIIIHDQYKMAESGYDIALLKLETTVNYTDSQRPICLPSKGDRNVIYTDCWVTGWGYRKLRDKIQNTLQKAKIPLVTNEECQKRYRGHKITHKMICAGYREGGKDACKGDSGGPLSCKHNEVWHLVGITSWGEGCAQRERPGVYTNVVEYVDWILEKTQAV
human FXIa protein (hFXIa), sequence (P03951 19-387 partner): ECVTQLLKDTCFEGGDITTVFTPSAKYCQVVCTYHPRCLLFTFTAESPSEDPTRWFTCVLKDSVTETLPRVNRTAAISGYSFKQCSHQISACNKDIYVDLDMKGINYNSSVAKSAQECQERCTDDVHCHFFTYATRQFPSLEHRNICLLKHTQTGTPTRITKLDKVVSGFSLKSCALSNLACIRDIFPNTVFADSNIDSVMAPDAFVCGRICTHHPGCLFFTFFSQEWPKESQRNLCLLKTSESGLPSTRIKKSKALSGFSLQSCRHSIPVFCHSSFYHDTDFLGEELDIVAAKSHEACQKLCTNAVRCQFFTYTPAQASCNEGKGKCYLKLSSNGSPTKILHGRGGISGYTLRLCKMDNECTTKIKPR

SMILES | IC50 [1] | concentration giving fixed-fold APTT prolongation [2, 3] | concentration giving fixed-fold APTT prolongation [2, 4]
CNC(=O)[C@@H]1[C@@H](Cc2ccnc(N)c2)C(=O)N1C(=O)N1CCCC(C2CCCCCCC2)C1 (stereo partly shown) [Example 45] | 5.3 nM |  | 
NC(=O)[C@@H]1[C@@H](Cc2ccnc(N)c2)C(=O)N1C(=O)N1CCC[C@@H](c2ccccc2)C1 [Example 31] | 2.8 nM |  | 
COC(=O)Nc1cccc(C2CCCN(C(=O)N3C(=O)[C@H](Cc4ccnc(N)c4)[C@H]3C(=O)O)C2)c1 (stereo partly shown) [Example 42] | 9.1 nM |  | 
Cn1cc(C2CCCN(C(=O)N3C(=O)[C@H](Cc4ccnc(N)c4)[C@H]3C(=O)O)C2)cn1 (stereo partly shown) [Example 28] | 23.1 nM |  | 
CNC(=O)[C@@H]1[C@@H](Cc2ccnc(N)c2)C(=O)N1C(=O)N1CCC[C@H](c2ccccc2)C1 [Example 23] | 1.5 nM | 1.48 µM | 4.4 µM
N#Cc1ccc2c(c1)CCN2C(=O)N1C(=O)[C@H](Cc2ccnc(N)c2)[C@H]1C(=O)O [Example 13] | 23.2 nM |  | 
Nc1cc(C[C@H]2C(=O)N(C(=O)N3CCCC(c4ccc5c(c4)OC(F)(F)O5)C3)[C@@H]2C(=O)O)ccn1 (stereo partly shown) [Example 26] | 11.1 nM |  | 
CNC(=O)[C@@H]1[C@@H](Cc2ccnc(N)c2)C(=O)N1C(=O)N1CCCCC1c1ccccc1 (stereo partly shown) [Example 19] | 5.99 nM |  | 
CS(=O)(=O)NC(=O)[C@@H]1[C@@H](Cc2ccnc(N)c2)C(=O)N1C(=O)N1CCC[C@H](c2ccccc2)C1 [Example 25] | 3.2 nM |  | 
CNC(=O)[C@@H]1[C@@H](Cc2ccnc(N)c2)C(=O)N1C(=O)N1CCC[C@@H](c2ccccc2)C1 [Example 41] | 4.1 nM | 2.18 µM | 8.22 µM
Nc1cc(C[C@H]2C(=O)N(C(=O)N3CCCC(c4cccc5ccccc45)C3)[C@@H]2C(=O)O)ccn1 (stereo partly shown) [Example 46] | 7.7 nM |  | 
CN(C)C(=O)[C@@H]1[C@@H](Cc2ccnc(N)c2)C(=O)N1C(=O)N1CCCCC1c1ccccc1 (stereo partly shown) [Example 20] | 10.8 nM |  | 
CNC(=O)[C@@H]1[C@@H](Cc2ccnc(N)c2)C(=O)N1C(=O)N1CCCC(c2ccc(F)cc2)C1 (stereo partly shown) [Example 30] | 2.4 nM |  | 
NC(=O)[C@@H]1[C@@H](Cc2ccnc(N)c2)C(=O)N1C(=O)N1CCCC(c2ccc3c(c2)OC(F)(F)O3)C1 (stereo partly shown) [Example 32] | 4.1 nM |  | 
Nc1cc(C[C@H]2C(=O)N(C(=O)N3CCC[C@H](c4ccccc4)C3)[C@@H]2C(=O)O)ccn1 [Example 16] | 1.89 nM | 1.41 µM | 6.99 µM
CN(C)C(=O)[C@@H]1[C@@H](Cc2ccnc(N)c2)C(=O)N1C(=O)N1CCC[C@H](c2ccccc2)C1 [Example 24] | 3.6 nM |  | 
CNC(=O)[C@@H]1[C@@H](Cc2ccnc(N)c2)C(=O)N1C(=O)N1CCCC(c2ccccc2)C1 (stereo partly shown) [Example 51] | 3.3 nM |  | 
CS(=O)(=O)NC(=O)[C@@H]1[C@@H](Cc2ccnc(N)c2)C(=O)N1C(=O)N1CCCCC1c1ccccc1 (stereo partly shown) [Example 18] | 10.7 nM |  | 
CNC(=O)[C@@H]1[C@@H](Cc2ccnc(N)c2)C(=O)N1C(=O)N1CCCC(c2ccc3c(c2)OC(F)(F)O3)C1 (stereo partly shown) [Example 33] | 3.5 nM |  | 
